Experimental data reported in patent US20240050574A1, “IONIZABLE LIPIDS” (eTheRNA immunotherapies NV, priority 2020, published 2024).

Experiments:
[1] = mRNA encapsulation efficiency by Ribogreen RNA assay; format: physicochemical; conditions: for E.E. (encapsulation efficiency): N/P 10
Experimental: Lipid based nanoparticles are produced by microfluidic mixing of an mRNA solution in sodium acetate buffer (100 mM, pH4) and lipid solution in a 2:1 volume ratio at a speed of 9 mL/min using the NanoAssemblr Benchtop (Precision Nanosystems). The lipid solution contained a mixture of the ionizable lipid of interest, DSPC, DOPC or DOPE (Avanti), Cholesterol (Sigma) and DMG-PEG2000 (Sunbright GM-020, NOF corporation. The 4 lipids were mixed at 6 different molar ratios. LNPs were dialyzed against TBS (10000 times more TBS volume than LNP volume) using slide-a-lyzer dialysis cassettes (20K MWCO, 3 mL, ThermoFisher). Size, polydispersity and zeta potential were measured with a Zetasizer Nano (Malvern). mRNA encapsulation was measured by standard Ribogreen RNA assay (Invitrogen). […]
(§1) LNP formulations were prepared using a modified procedure of a method previously described for siRNA LNP synthesis. All formulations were prepared in a sterile manner with a N/P ratio of 10. All lipid components were dissolved in ethanol at molar ratios of 50:10:38.5:1.5 mol % (ionizable lipid/DSPC/Cholesterol/DMG-PEG2000). DSPC, Cholesterol and DMG-PEG2000 were purchased from Avanti Polar Lipids (Alabaster, Alabama, USA), while the Ionizable lipids are synthesized in-house. The final lipid concentration in ethanol was fixed at 10 mg/mL. E7 mRNA was dissolved in 100 mM acetate buffer (Sigma Aldrich, Saint-Louis, Missouri, USA) pH 4. The ethanol and aqueous phase were combined using a microfluidic mixer (NanoAssemblr® BenchTop (Precision Nanosystems, Vancouver, BC) in a 2:1 (aqueous:ethanol) ratio. Formulations were dialysed afterwards against 1× Sterile TBS pH 7.4 (Sigma Aldrich, Saint-Louis, Missouri, USA) using Slide-A-Lyzer® dialysis cassettes with a MWCO of 20.000 Da (Thermo Scientific, Massachusetts, USA) for 18 hours. Afterwards, the purified formulations were concentrated using Amicon ultra centrifugal filters (EMD Millipore, Massachusetts, USA). Finally, the exact concentration and E.E. % was determined through a Ribogreen Assay prior to final dilution with TBS (100 μg/mL E7 mRNA per formulation. All formulations were characterized for size and PDI using Dynamic Light Scattering Zetasizer Nano-ZS (Malvern Pananlytical Ltd., Malvern, UK) and stored afterwards at 4° C. The physico-chemical characteristics of each formulation can be found in Table 5.

E7-specific CD8 T cells = test: E7-specific CD8 T cell response after intramuscular E7 mRNA LNP vaccination (Example 5); format: in vivo, mice; conditions: Example 5, FIG. 13, in vitro stimulation with E7-derived peptide, vs MC-3
[2] = LNP size and polydispersity index by Dynamic Light Scattering (Malvern Zetasizer); format: physicochemical; conditions: N/P 10
Experimental: Lipid based nanoparticles are produced by microfluidic mixing of an mRNA solution in sodium acetate buffer (100 mM, pH4) and lipid solution in a 2:1 volume ratio at a speed of 9 mL/min using the NanoAssemblr Benchtop (Precision Nanosystems). The lipid solution contained a mixture of the ionizable lipid of interest, DSPC, DOPC or DOPE (Avanti), Cholesterol (Sigma) and DMG-PEG2000 (Sunbright GM-020, NOF corporation. The 4 lipids were mixed at 6 different molar ratios. LNPs were dialyzed against TBS (10000 times more TBS volume than LNP volume) using slide-a-lyzer dialysis cassettes (20K MWCO, 3 mL, ThermoFisher). Size, polydispersity and zeta potential were measured with a Zetasizer Nano (Malvern). mRNA encapsulation was measured by standard Ribogreen RNA assay (Invitrogen).
Size and Poly Dispersity Index were assessed by Dynamic Light Scattering (DLS) on a Malvern Zetasizer. MC-3 is the ionizable lipid used in Onpattro and is considered the state-of-the art.
as §1

[3] = as above; format: physicochemical
[4] = Body weight after intratumoral LNP administration (CT26 model); format: in vivo, Balb/c mice; conditions: after intratumoral administration of 10 μg mRNA LNP
Experimental: Fluc mRNA expression in tumor and liver was assessed at 6 an 24 hours post injection. By injecting mice peritoneally with D-luciferin (Promega), bioluminescence can be measured through in vivo imaging (IVIS Spectrum System). Bioluminescence is generated through an oxidation reaction which occurs between the enzyme luciferase derived from the firefly mRNA encapsulated in the LNP and its substrate D-luciferin. The Living Image Software (PerkinElmer) was used to specify tumor and liver ‘region of interests (ROIs) after which the average radiance (p/s/cm^2/sr) was calculated within these ROIs. To monitor tolerability of different LNP types used, bodyweight at 6 and 24 hours post injection was compared to baseline bodyweight at day of randomization.
Balb/c mice were subcutaneously inoculated with CT26 tumor cells. When tumors reached a mean volume of 50-100 mm^3, tumors were injected with the respective mRNA LNPs (10 μg mRNA; 20 μl volume; TBS buffer) or with control buffer.

[5] = Body weight after intratumoral LNP administration (B16F10 model); format: in vivo, C57/BL6 mice; conditions: B16F10 model (Example 2.5); after intratumoral administration of 10 μg mRNA LNP
liver [6] = test: Fluc mRNA off-target expression in liver after intratumoral LNP injection of B16F10 tumors; format: in vivo, C57/BL6 mice; conditions: B16F10 tumors (Example 2.5); intratumoral 10 μg mRNA; 6 hours and 24 hours post injection; vs MC-3 based benchmark LNP
Experimental: (§2) In case of CT26 tumor inoculation we used Balb/c mice. For B16F10 tumor inoculation C57/BL6 mice were used. To prepare for subcutaneous tumor inoculation, mice were anesthetized using 2.5% isoflurane and the injection site was shaved. The injection site is typically on the posterior/lateral aspect of the lower left flank. For inoculation purposes, cells need to be approximately 1 week in culture and between passage 3 and 5 after thawing. Cold tumor cell solution was injected subcutaneously at a dose of 0.5*10e6 cells/50 μl PBS. Tumor growth was measured every 2-3 days using the Caliper device. The following formula was used to calculate tumor size: (tumor width*tumor width*tumor length)/2. […] After injections, mice were always monitored for 5-10 minutes until fully awake without showing any sings of pain distress or complications.
(§3) Fluc mRNA expression in tumor and liver was assessed at 6 an 24 hours post injection. By injecting mice peritoneally with D-luciferin (Promega), bioluminescence can be measured through in vivo imaging (IVIS Spectrum System). […] The Living Image Software (PerkinElmer) was used to specify tumor and liver ‘region of interests (ROIs) after which the average radiance (p/s/cm^2/sr) was calculated within these ROIs. […]

liver [7] = test: Fluc mRNA off-target expression in liver after intratumoral LNP injection of CT26 tumors; format: in vivo, Balb/c mice; conditions: intratumoral 10 μg mRNA, 6 hours and 24 hours post injection, vs MC-3 based benchmark LNP
Experimental: as §2, §3

B16F10 tumors = test: Fluc mRNA expression in tumor after intratumoral LNP injection, in vivo bioluminescence; parameters: species or system C57/BL6 mice; conditions: B16F10 tumors (Example 2.5); intratumoral 10 μg mRNA; 6 hours and 24 hours post injection; vs MC-3 based benchmark LNP
Experimental: as §2, §3

[8] = Table 6 (Example 4, HA mRNA), ionizable lipid/DSPC/Chol/DMG-PEG2000 50/10/38.5/1.5 mol %
[9] = Table 7, Ratio 1: 50/10/38.5/1.5 mol % ionizable lipid/DSPC (SS-EC: DOPE)/Chol/DMG-PEG2000
[10] = Table 7, Ratio 2: 56.71/14.43/27.58/1.28 mol % ionizable lipid/DSPC/Chol/DMG-PEG2000
[11] = Table 6 (Example 4, HA mRNA), ionizable lipid/DSPC/Chol/DMG-PEG2000 50/10/38.5/1.5 mol %, N/P 10
[12] = Table 7, Ratio 2: 56.71/14.43/27.58/1.28 mol % ionizable lipid/DSPC/Chol/DMG-PEG2000, N/P 10
[13] = Table 3, LNP ionizable lipid/phospholipid/cholesterol/DMG-PEG2000 about 50/10/38.5/1.5, DOPE, except MC-3 with DSPC, eGFP mRNA
[14] = Table 5, ionizable lipid/DSPC/Chol/DMG-PEG2000 50/10/38.5/1.5 mol %, E7 mRNA

Row | E.E. (encapsulation efficiency) [1, 8] [%] | E.E. (encapsulation efficiency) [1, 9] [%] | E.E. (encapsulation efficiency) [1, 10] [%] | PDI [2, 9] | size [2, 9] [nm] | PDI [3, 11] | size [3, 11] [nm] | PDI [3, 12] | size [3, 12] [nm] | SMILES | further results
1 | 97 | 97 | 95 | 0.095 | 90 | 0.083 | 105.1 | 0.081 | 88 | CCCCCCCCC(CCCCCC)C(=O)OCCN(CCOC(=O)C(CCCCCC)CCCCCCCC)C(=O)OCCSSCCOC(=O)NCCN1CCCCCC1 (stereo not drawn) [S-Ac7-DHDa] | T cell responses (IFNg+, IFNg+ TNFa+, IFNg+ Granzyme b+, IFNg+ CD107+ CD8 T cells in spleen) (E7-specific CD8 T cells): superior T cell responses compared to MC-3
2 | 98 | 97 | 96 | 0.094 | 109 | 0.077 | 93.62 | 0.106 | 97 | CCCCCCCC/C=C\CCCCCCCC(=O)OCC(CNC(=O)OCCSSCCOC(=O)NCCN1CCCCCC1)OC(=O)CCCCCCC/C=C\CCCCCCCC (stereo not drawn) [S-Ac7-DOg] | body weight [4]: No weight loss; % encap [1, 13]: 90%; E.E. (encapsulation efficiency) [1, 14]: 96%; body weight [5]: No weight loss; off-target Fluc expression in the liver (liver [6]): strongly reduced off-target expression in the liver; PDI [2, 14]: 0.062; size [2, 14]: 97.51 nm; PDI [3, 13]: 0.21; size ([3]; Table 3, LNP ionizable lipid/phospholipid/cholesterol/DMG-PEG2000 about 50/10/38.5/1.5, DOPE, except MC-3 with DSPC, eGFP mRNA, in nm (unit assumed)): 87.46; off-target Fluc expression in the liver (liver [7]): strongly reduced off-target expression in the liver; Fluc expression levels in the tumor (in vivo bioluminescence) (B16F10 tumors): increased Fluc expression levels in the tumor compared to the MC-3 based benchmark LNP
